Assay results from ChEMBL document CHEMBL1201862, “PubChem BioAssay data set” (2004).
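Method: 48-hour compound exposure of cells in 96-well plates, five concentrations, linear interpolation of endpoints. At the GI50, growth is halved.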 Active and inactive are the calls of the source. Cut-off read from the data, not from the text of the source: active = GI50 up to about 1.1 µM and inactive = higher.

How the values were obtained:
Assay in all cases: NCI-60 cell line screen, 48 h
[1] = tested on: OVCAR-5
[2] = tested on: M14
[3] = tested on: HCT-15
[4] = tested on: Malme-3M
[5] = tested on: OVCAR-8
[6] = tested on: UACC-62
[7] = tested on: K562
[8] = tested on: SF-295
[9] = tested on: HT-29
[10] = tested on: HCC 2998
[11] = tested on: SF-268
[12] = tested on: SK-MEL-28
[13] = tested on: SK-MEL-2
[14] = tested on: SK-MEL-5
[15] = tested on: NCI/ADR-RES
[16] = tested on: SK-OV-3
[17] = tested on: Hs-578T
[18] = tested on: DU-145
[19] = tested on: NCI-H522

Row | SMILES | GI50 [1] | GI50 [2] | GI50 [3] [µM] | GI50 [4] | GI50 [5] | GI50 [6] | GI50 [7] | GI50 [8] | GI50 [9] | GI50 [10] | GI50 [11] | GI50 [12] | GI50 [13] | GI50 [14] | GI50 [15] | GI50 [16] | GI50 [17] | GI50 [18] | GI50 [19]
1 | Nc1ncnc2c1nc(O)n2-c1ccccc1 | > 100 µM (inactive) | > 100 µM (inactive) | > 100 | > 100 µM (inactive) | > 100 µM (inactive) | > 100 µM (inactive) | > 100 µM (inactive) | > 100 µM (inactive) | > 100 µM (inactive) | > 100 µM (inactive) | > 100 µM (inactive) | > 100 µM (inactive) | > 100 µM (inactive) | > 100 µM (inactive) | > 100 µM (inactive) | > 100 µM (inactive) | > 100 µM (inactive) |  | 
2 | C=CCC(SC)C1=C(C)C(=O)c2ccccc21 (stereo unspecified) | > 10 µM (inactive) | > 10 µM (inactive) | > 10 | > 10 µM (inactive) | > 10 µM (inactive) | > 10 µM (inactive) | > 10 µM (inactive) | > 10 µM (inactive) | > 10 µM (inactive) | > 10 µM (inactive) | > 10 µM (inactive) | > 10 µM (inactive) | > 10 µM (inactive) | > 10 µM (inactive) |  | > 10 µM (inactive) |  | > 10 µM (inactive) | 
3 | O=C(OCC(Cl)(Cl)Cl)N1CC[C@@H](C2CCCCC2)C1 | 23.7 µM (inactive) | 34.8 µM (inactive) | 18.7 |  |  | 27.7 µM (inactive) | 21.5 µM (inactive) | 19 µM (inactive) |  | 18.6 µM (inactive) | 17.3 µM (inactive) |  | 18.3 µM (inactive) | 18.1 µM (inactive) | 18 µM (inactive) | 42.6 µM (inactive) |  | 35.6 µM (inactive) | 21.7 µM (inactive)
4 | COc1cc(C2SC(=N)Nc3c2c(C)nn3C(=O)Cc2ccccc2)ccc1O (stereo unspecified) |  | > 100 µM (inactive) | > 100 | > 100 µM (inactive) | > 100 µM (inactive) | > 100 µM (inactive) | > 100 µM (inactive) | > 100 µM (inactive) | > 100 µM (inactive) | > 100 µM (inactive) | > 100 µM (inactive) | > 100 µM (inactive) |  | > 100 µM (inactive) |  | > 100 µM (inactive) | > 100 µM (inactive) | > 100 µM (inactive) | > 100 µM (inactive)
5 | N#Cc1c(-c2ccccc2)c(/C=N/c2cccc(C(F)(F)F)c2)c(=O)n2c1[nH]c1ccccc12 | 10.8 µM (inactive) | 32.3 µM (inactive) | 33 | 42.3 µM (inactive) | 24.8 µM (inactive) |  |  | 46.2 µM (inactive) |  | 30.8 µM (inactive) | 35.6 µM (inactive) | 59 µM (inactive) | 22.1 µM (inactive) | 52 µM (inactive) | 25.1 µM (inactive) | 26.9 µM (inactive) |  |  | 15.1 µM (inactive)
6 | COc1ccc(OC)c(N(CN2C(=O)CCC2C(=O)O)C(C)=O)c1 (stereo unspecified) | > 100 µM (inactive) | > 100 µM (inactive) | > 100 | > 100 µM (inactive) | > 100 µM (inactive) | > 100 µM (inactive) | > 100 µM (inactive) | > 100 µM (inactive) | > 100 µM (inactive) |  | > 100 µM (inactive) | > 100 µM (inactive) | > 100 µM (inactive) | > 100 µM (inactive) | > 100 µM (inactive) | > 100 µM (inactive) | > 100 µM (inactive) | > 100 µM (inactive) | > 100 µM (inactive)
7 | C/C(=C\CBr)CCC(Br)C(C)(C)Cl (stereo unspecified) | > 100 µM (inactive) | > 100 µM (inactive) | > 100 | > 100 µM (inactive) | > 100 µM (inactive) | > 100 µM (inactive) | > 100 µM (inactive) | > 100 µM (inactive) | > 100 µM (inactive) |  | > 100 µM (inactive) | > 100 µM (inactive) | > 100 µM (inactive) | > 100 µM (inactive) |  | > 100 µM (inactive) |  |  | > 100 µM (inactive)
8 | Cc1cccc(Cl)c1NC(=O)/C=C/c1ccccc1 | > 100 µM (inactive) | > 100 µM (inactive) | > 100 | > 100 µM (inactive) | 26.1 µM (inactive) | > 100 µM (inactive) | > 100 µM (inactive) | 36.6 µM (inactive) | 59.3 µM (inactive) | 74.6 µM (inactive) | 67 µM (inactive) | > 100 µM (inactive) | > 100 µM (inactive) | 95.5 µM (inactive) |  | 37.3 µM (inactive) | 33 µM (inactive) | 67.6 µM (inactive) | 49.3 µM (inactive)
9 | Cc1cccc(C)c1NC(=O)/C=C/c1ccccc1 | > 100 µM (inactive) | > 100 µM (inactive) | > 100 | 51.2 µM (inactive) | 73.1 µM (inactive) | > 100 µM (inactive) | > 100 µM (inactive) | 88.5 µM (inactive) | > 100 µM (inactive) | > 100 µM (inactive) | > 100 µM (inactive) | > 100 µM (inactive) | > 100 µM (inactive) | > 100 µM (inactive) |  | > 100 µM (inactive) | 24.6 µM (inactive) | > 100 µM (inactive) | 18.8 µM (inactive)
